The results in this text go back to paper PMC10824102, “Identification of small molecule inhibitors of G3BP-driven stress granule formation” (The Journal of Cell Biology, 2024).

The target in assay [1] is T1, interaction between G3BP1 and endogenous USP10 (Homo sapiens, UniProt Q13283).
T1 construct: expressed in transfected cells; host or cells: U2OS cells stably expressing G3BP1-GFP (lysate)
Nature of the assay: Coimmunoprecipitation of G3BP1-GFP with endogenous USP10 in U2OS lysates. In kind it is biochemical. Conditions: increasing concentrations added to U2OS G3BP1-GFP lysates, GFP IP. Here is the method: U2OS cells expressing G3BP1-GFP were grown in 3-cm dishes to 100% confluency, at which point cells were collected and pelleted at 400 × g for 5 min. Pellets were either stored at −80°C or processed the same day by lysing with 200 μl in vivo lysis buffer (150 mM NaCl, 50 mM Tris [pH 7.5], 1 mM EDTA, 0.5% NP-40, and 10% glycerol, supplemented with 1 protease inhibitor tablet [11836170001; Roche]). Lysates were centrifuged at 13,000 × g at 4°C for 15 min, after which supernatants were transferred to a new tube and diluted with 200 μl lysis buffer containing indicated concentrations of G3I compounds. The mixture was then incubated with GFP-Trap (ChromoTek GFP-Trap Magnetic Agarose; Proteintech; gtma) for 2 h at 4°C. Beads were washed three times with lysis buffer, then incubated with 1× SDS sample buffer supplemented with 10% 2-mercaptoethanol, and boiled for 5 min at 95°C. Lysates were subjected to SDS-PAGE and then immunoblotted.
Samples were separated by SDS-PAGE and transferred to membranes. […] Membranes were visualized and quantified with an Odyssey Fc imaging system (LI-COR) and normalized to the amount of G3BP1 immunoprecipitated.

Assay [2] concerns preformed stress granules in U2OS cells stably expressing G3BP1-GFP. Nature of the assay: Post-addition: dissolution of preformed arsenite-induced stress granules. Format: cell-based. To be noted: 50 μM added after 30 min of 250 μM NaAsO2. As for the experimental part:
For post-addition of compounds, U2OS cells stably expressing G3BP1-GFP were seeded into eight-well Lab-Tek chambered cover glass (Nunc) for sodium arsenite experiments or 35-mm glass-bottom dishes (MatTek) for heat shock experiments. Immediately prior to the experiment, media was replaced with FluoroBrite DMEM media (Gibco) in each well supplemented with 10% FBS and 4 mM L-glutamine; for sodium arsenite experiments, arsenite was added at a final concentration of 250 μM. Cells were then placed on a microscope on which 37°C temperature and 5% CO2 were maintained using a Bold Line Cage Incubator (Okolab) and an objective heater (Bioptechs), and 5–10 xy fields were stored. For sodium arsenite experiments, acquisition began immediately after finding all xy positions, 4 min after the addition of sodium arsenite. 30 min after arsenite was added, 250 μl FluoroBrite DMEM with 250 μM sodium arsenite and 0.1 mM (2×) G3I compound (vortexed for 5 s) was added to the sample. For heat shock experiments, each xy position was imaged every minute. At 2 min into the acquisition, the objective heater was ramped to 43°C. Following this, 250 μM (5×) G3I compound was prepared in FluoroBrite DMEM and vortexed for 15 s. This solution was kept on a 47°C heater near the microscope along with a pipette tip. […]

The structures appear in SMILES notation.

T1 sequence (Q13283 whole entry): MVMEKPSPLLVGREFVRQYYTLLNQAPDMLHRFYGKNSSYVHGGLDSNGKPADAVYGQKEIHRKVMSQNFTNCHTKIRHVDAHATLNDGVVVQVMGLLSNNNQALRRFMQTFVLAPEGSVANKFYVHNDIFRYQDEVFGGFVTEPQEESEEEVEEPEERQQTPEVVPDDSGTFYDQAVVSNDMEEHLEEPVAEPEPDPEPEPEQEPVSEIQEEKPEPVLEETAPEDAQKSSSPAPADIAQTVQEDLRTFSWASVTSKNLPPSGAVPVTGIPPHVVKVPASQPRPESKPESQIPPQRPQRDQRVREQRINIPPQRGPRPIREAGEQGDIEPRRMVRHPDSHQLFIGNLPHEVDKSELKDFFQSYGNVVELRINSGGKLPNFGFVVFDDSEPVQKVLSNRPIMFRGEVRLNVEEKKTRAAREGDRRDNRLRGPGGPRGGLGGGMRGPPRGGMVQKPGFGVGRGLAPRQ

As for `CC(NC(=O)C(NC(=O)C(NC(=O)CCC(C)(C)C)C(C)(C)O)C(C)c1ccccc1)C(=O)N1CCCC1c1ccccc1` (stereo not shown) [G3Ib], the “interaction between G3BP1 and endogenous USP10” value in assay [1] was “dose-dependent reduction”. The “reduction of stress granule area (preformed granules)” value in assay [2] is listed as about 84%.

On to `COCCC(NC(=O)C(C)NC(=O)C(NC(=O)C(NC(=O)C(F)CC(C)(C)C)C(C)(C)O)C(C)c1ccccc1)C(=O)N(C)Cc1ccccc1` (stereo not shown) [G3Ia], for which the “reduction of stress granule area (preformed granules)” value in assay [2] was about 74%.

With `CC(NC(=O)C(NC(=O)C(NC(=O)CCC(C)(C)C)C(C)(C)O)C(C)c1ccccc1)C(=O)N1CCCC1c1ccccc1` (stereo not shown) [G3Ib′], the “interaction between G3BP1 and endogenous USP10” value in assay [1] is “no such effect”.
